What was measured:
opioid receptors = conditions: Wikler, A., Int. J. of the Addictions 12(7) 869, 1977; cited from earlier work
chronic constipation [1] = assay: Example I: stool weight of a patient with chronic constipation given naloxone (single blind, placebo first); format: in vivo, human
Procedure: A person with a history of chronic constipation for a period of over twenty years, requiring daily use of large doses of laxatives plus frequent enemas, was admitted to the research hospital on day one at approximately 4:00 p.m. They were given a standard laxative regimen documented to be inadequate to effect a spontaneous bowel movement, and placed on a high residue diet.
During the first 24 hours they were treated with a placebo (Infusion A) according to the following schedule:
The total dosage per day was 21.6 mg.
During the five days that the patient was under hospital care the stools were collected and weighed. The results were as follows:
The experiment was conducted as a single blind. The patient was not aware of whether they were receiving a placebo or the active agent.

chronic constipation [2] = assay: Example II: stool weight of a second patient with chronic constipation given naloxone; format: in vivo, human
Excerpt: A second patient with a history of over twenty years of chronic constipation, intractable to laxatives, who for the past several months was only relieved by enema treatment was admitted to the hospital and placed on a high residue diet.

chronic constipation [3] = assay: Table 1: five inpatient and outpatient studies on Patient Number 1 (chronic constipation): fecal weight, fecal fat, symptoms; format: in vivo, human
Excerpt: The tables set forth the significant details and results of a number of studies conducted with different patients suffering from various forms of intestinal dysmotility. […] The first study was of two days duration. The lengths of subsequent studies are as indicated.
The reports Tables 1 to 5 are for patients with chronic constipation. Those in Tables 6, 7 and 8 are for patients with irritable bowel syndrome.

[4] = Adverse effects by clinical examination, blood and urine analysis in Examples I and II; format: in vivo, human
Excerpt: Samples of the patient's blood and urine were collected each day and subjected to analysis.

[5] = Day 2, naloxone intravenous (29.2 mg per Table 1)
[6] = Day 3, naloxone oral 21.6 mg per day
[7] = Day 4, naloxone oral 21.6 mg per day
[8] = Day 5, naloxone oral 21.6 mg per day
[9] = Day 1, 29.2 mg naloxone, intravenous
[10] = Patient Number 1, Study #1 (inpatient), i.v., Study Day 2, total 24 hour dose 29.2 mg
[11] = Patient Number 1, Study #2 (inpatient), p.o., Study Day 1, total 24 hour dose 21.6 mg
[12] = Patient Number 1, Study #2 (inpatient), p.o., Study Day 2, total 24 hour dose 21.6 mg
[13] = Patient Number 1, Study #2 (inpatient), p.o., Study Day 3, total 24 hour dose 21.6 mg

Compound: O=C1CC[C@@]2(O)[C@H]3Cc4ccc(O)c5c4[C@@]2(CCN3CC2CC2)[C@H]1O5 [Naltrexone, N-cyclopropylmethyl-14-hydroxydihydronormorphinone]
- agonistic activity (opioid receptors): slight agonistic activity

Compound: C=CCN1CC[C@]23c4c5ccc(O)c4O[C@H]2C(=O)CC[C@@]3(O)[C@H]1C5 [naloxone, N-allyl-14-hydroxydihydronormorphinone]
- STOOL WEIGHT GRAMS Wet Weight (chronic constipation [1]; [5]): 649 Grams
- Stool Weight Grams Dry Weight (chronic constipation [1]; [5]): 52 Grams
- STOOL WEIGHT GRAMS Wet Weight (chronic constipation [1]; [6]): 985 Grams
- Stool Weight Grams Dry Weight (chronic constipation [1]; [6]): 77 Grams
- STOOL WEIGHT GRAMS Wet Weight (chronic constipation [1]; [7]): 997 Grams
- Stool Weight Grams Dry Weight (chronic constipation [1]; [7]): 77 Grams
- STOOL WEIGHT GRAMS Wet Weight (chronic constipation [1]; [8]): 806 Grams
- Stool Weight Grams Dry Weight (chronic constipation [1]; [8]): 65 Grams
- STOOL WEIGHT GRAMS Wet Weight (chronic constipation [2]; [9]): 84 GRAMS
- Stool Weight Grams Dry Weight (chronic constipation [2]; [9]): 18.5 GRAMS
- STOOL WEIGHT GRAMS Wet Weight (chronic constipation [2]; Day 3, 14.4 mg naloxone, oral): 35 GRAMS
- Stool Weight Grams Dry Weight (chronic constipation [2]; Day 3, 14.4 mg naloxone, oral): 8.2 GRAMS
- STOOL WEIGHT GRAMS Wet Weight (chronic constipation [2]; Day 4, 21.6 mg naloxone, oral): 125 GRAMS
- Stool Weight Grams Dry Weight (chronic constipation [2]; Day 4, 21.6 mg naloxone, oral): 66.4 GRAMS
- STOOL WEIGHT GRAMS Wet Weight (chronic constipation [2]; Day 5, 21.6 mg naloxone, oral): 230 GRAMS
- Stool Weight Grams Dry Weight (chronic constipation [2]; Day 5, 21.6 mg naloxone, oral): 82.4 GRAMS
- STOOL WEIGHT GRAMS Wet Weight (chronic constipation [2]; Day 6, 7.2 mg naloxone, oral): 34 GRAMS
- Fecal Dry Wt. (gm) (chronic constipation [3]; [10]): 52 gm
- Fecal Wet Wt. (gm) (chronic constipation [3]; [10]): 649 gm
- Symptoms, Signs, Comments (chronic constipation [3]; [10]): Marked improvement
- Fecal Dry Wt. (gm) (chronic constipation [3]; [11]): 77 gm
- Fecal Wet Wt. (gm) (chronic constipation [3]; [11]): 985 gm
- Symptoms, Signs, Comments (chronic constipation [3]; [11]): Marked improvement
- Fecal Dry Wt. (gm) (chronic constipation [3]; [12]): 77 gm
- Fecal Wet Wt. (gm) (chronic constipation [3]; [12]): 997 gm
- Symptoms, Signs, Comments (chronic constipation [3]; [12]): Marked improvement
- Fecal Dry Wt. (gm) (chronic constipation [3]; [13]): 65 gm
- Fecal Wet Wt. (gm) (chronic constipation [3]; [13]): 806 gm
- Symptoms, Signs, Comments (chronic constipation [3]; [13]): Marked improvement
- Symptoms, Signs, Comments (chronic constipation [3]; Patient Number 1, Study #3 (outpatient), p.o., Study Day 1, total 24 hour dose 21.6 mg): Average day
- Symptoms, Signs, Comments (chronic constipation [3]; Patient Number 1, Study #3 (outpatient), p.o., Study Day 2, total 24 hour dose 21.6 mg): Better than average day
- Symptoms, Signs, Comments (chronic constipation [3]; Patient Number 1, Study #3 (outpatient), p.o., Study Day 3, total 24 hour dose 21.6 mg): Much better than average day
- Fecal Wet Wt. (gm) (chronic constipation [3]; Patient Number 1, Study #4 (inpatient), i.v., Study Day 2, total 24 hour dose 29.2 mg): 775 gm
- Fecal Wet Wt. (gm) (chronic constipation [3]; Patient Number 1, Study #4 (inpatient), i.v., Study Day 3, total 24 hour dose 29.2 mg): 859 gm
- Symptoms, Signs, Comments (chronic constipation [3]; Patient Number 1, Study #5 (outpatient), route not given, Study Day 1, total 24 hour dose 21.6 mg): Much better than average
- Symptoms, Signs, Comments (chronic constipation [3]; Patient Number 1, Study #5 (outpatient), route not given, Study Day 2, total 24 hour dose 21.6 mg): Much better than average
- Symptoms, Signs, Comments (chronic constipation [3]; Patient Number 1, Study #5 (outpatient), route not given, Study Day 3, total 24 hour dose 21.6 mg): Much better than average
- adverse effects (analysis of blood and urine collected each day) ([4]; Example I patient, naloxone intravenous then oral 21.6 mg per day): No adverse effects
- adverse effects (clinical examinations, blood or urine analysis) ([4]; Example II patient, naloxone 29.2 mg intravenous, then 7.2 to 21.6 mg oral): No adverse effects
